Experiments:
duck salad = assay: Test B flood test duck salad; format: in vivo, Heteranthera limosa
How it was run: (§1)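 Plants were grown to the 2-leaf stage before treatment with test chemical, then held in a greenhouse for twelve to sixteen days. Injury was visually rated against untreated controls on a 0–10 scale, where 0 is no effect and 10 is complete control.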

smallflower flatsedge = assay: Test B flood test smallflower flatsedge; format: in vivo, Cyperus difformis
How it was run: as §1

soybean = assay: Test B pre/postemergence soybean; format: in vivo, Glycine max
How it was run: (§2)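 Response is a visual 0-to-10 score relative to untreated plants, where 0 means no effect and 10 means complete control, taken twelve to sixteen days after application. Treatments went onto soil at planting and onto foliage of 1- to 4-leaf plants, using a surfactant-containing non-phytotoxic solvent.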

velvetleaf = assay: Test B pre/postemergence velvetleaf; format: in vivo, Abutilon theophrasti
How it was run: as §2

purple nutsedge = assay: Test B pre/postemergence purple nutsedge; format: in vivo, Cyperus rotundus
How it was run: as §2

surinam grass = assay: Test B pre/postemergence surinam grass; format: in vivo, Brachiaria decumbens
How it was run: as §2

wheat = assay: Test B pre/postemergence wheat; format: in vivo, Triticum aestivum
How it was run: as §2

morningglory = assay: Test B pre/postemergence morningglory; format: in vivo, Ipomoea hederacea
How it was run: as §2

corn = assay: Test B pre/postemergence corn; format: in vivo, Zea mays
How it was run: as §2

rice = assay: Test B flood test rice; format: in vivo, Oryza sativa
How it was run: as §1

bedstraw = assay: Test B pre/postemergence bedstraw; format: in vivo, Galium aparine
How it was run: as §2

rape = assay: Test B pre/postemergence rape; format: in vivo, Brassica napus
How it was run: as §2

crabgrass = assay: Test B pre/postemergence crabgrass; format: in vivo, Digitaria sanguinalis
How it was run: as §2

blackgrass = assay: Test B pre/postemergence blackgrass; format: in vivo, Alopecurus myosuroides
How it was run: as §2

giant foxtail = assay: Test B pre/postemergence giant foxtail; format: in vivo, Setaria faberii
How it was run: as §2

wild oat = assay: Test B pre/postemergence wild oat; format: in vivo, Avena fatua
How it was run: as §2

[1] = Rate 62 g/ha, headed Pre-emergence (flood test species), scale 0 to 10 (0 no effect, 10 complete control)
[2] = Rate 125 g/ha, Pre-emergence, flood test species, scale 0 to 10 where 0 is no effect and 10 is complete control
[3] = Rate 250 g/ha, Pre-emergence, flood-test species, scale 0 to 10, 0 is no effect, 10 is complete control
[4] = Rate 500 g/ha, Pre-emergence, flood test species, scale 0 to 10 (0 no effect, 10 complete control)
[5] = Preemergence, Rate 62 g/ha, scale of 0 to 10 where 0 is no effect and 10 is complete control
[6] = Preemergence, Rate 250 g/ha, scale of 0 to 10 where 0 is no effect and 10 is complete control
[7] = Preemergence, Rate 500 g/ha, scale of 0 to 10 where 0 is no effect and 10 is complete control
[8] = Rate 62 g/ha, Postemergence, scale 0 to 10 (0 no effect, 10 complete control)
[9] = Rate 125 g/ha, Postemergence, scale of 0 to 10 where 0 is no effect and 10 is complete control
[10] = Rate 250 g/ha, Postemergence, scale of 0 to 10 where 0 is no effect and 10 is complete control
[11] = Rate 500 g/ha, Postemergence, scale 0 to 10, 0 no effect, 10 complete control

Cc1cccc(C(C)(C)C)c1-n1c(=O)on(C(=O)N(c2ccccc2)C(C)C)c1=O [Compound 303]
3: Plant response rating, Soybean (soybean; [10]) | Morningglory plant response rating (morningglory; [7])
2: Soybean plant response rating (soybean; [8]) | Soybean plant response rating (soybean; [9])
0: Ducksalad plant response rating (duck salad; [1]) | Ducksalad plant response rating (duck salad; [2]) | Ducksalad plant response rating (duck salad; [3]) | Ducksalad plant response rating (duck salad; [4]) | S. Flatsedge plant response rating (smallflower flatsedge; [1]) | S. Flatsedge plant response rating (smallflower flatsedge; [2]) | S. Flatsedge plant response rating (smallflower flatsedge; [3]) | S. Flatsedge plant response rating (smallflower flatsedge; [4]) | Soybean plant response rating (soybean; [5]) | Soybean plant response rating (0 to 10 scale) (soybean; Preemergence, Rate 125 g/ha) | Soybean plant response rating (soybean; [6]) | Soybean plant response rating (soybean; [7]) | Velvetleaf plant response rating (velvetleaf; [5]) | Velvetleaf plant response rating (0 to 10 scale) (velvetleaf; Preemergence, Rate 125 g/ha) | Velvetleaf plant response rating (velvetleaf; [6]) | Velvetleaf plant response rating (velvetleaf; [7]) | Velvetleaf plant response rating (velvetleaf; [8]) | Velvetleaf plant response rating (velvetleaf; [9]) | Plant response rating, Velvetleaf (velvetleaf; [10]) | Nutsedge plant response rating (purple nutsedge; [5]) | Nutsedge plant response rating (purple nutsedge; [6]) | Nutsedge plant response rating (purple nutsedge; [7]) | Nutsedge plant response rating (purple nutsedge; [8]) | Nutsedge plant response rating (purple nutsedge; [9]) | Plant response rating, Nutsedge (purple nutsedge; [10]) | B. signalgrass plant response rating (surinam grass; [5]) | B. signalgrass plant response rating (0 to 10 scale, 0 is no effect, 10 is complete control) (surinam grass; Preemergence, Rate 125 g/ha) | B. signalgrass plant response rating (surinam grass; [6]) | B. signalgrass plant response rating (surinam grass; [7]) | B. signalgrass plant response rating (surinam grass; [8]) | B. signalgrass plant response rating (surinam grass; [9]) | Plant response rating, B. signalgrass (surinam grass; [10]) | B. signalgrass plant response rating (surinam grass; [11]) | Wheat plant response rating (wheat; [5]) | Wheat plant response rating (0 to 10 scale) (wheat; Preemergence, Rate 125 g/ha) | Wheat plant response rating (wheat; [6]) | Wheat plant response rating (wheat; [7]) | Wheat plant response rating (wheat; [8]) | Wheat plant response rating (wheat; [9]) | Plant response rating, Wheat (wheat; [10]) | Morningglory plant response rating (morningglory; [5]) | Morningglory plant response rating (0 to 10 scale) (morningglory; Preemergence, Rate 125 g/ha) | Morningglory plant response rating (morningglory; [6]) | Morningglory plant response rating (morningglory; [8]) | Morningglory plant response rating (morningglory; [9]) | Plant response rating, Morningglory (morningglory; [10]) | Corn plant response rating (corn; [5]) | Corn plant response rating (0 to 10 scale) (corn; Preemergence, Rate 125 g/ha) | Corn plant response rating (corn; [6]) | Corn plant response rating (corn; [7]) | Corn plant response rating (corn; [8]) | Corn plant response rating (corn; [9]) | Plant response rating, Corn (corn; [10]) | Corn plant response rating (corn; [11]) | Rice plant response rating (rice; [1]) | Rice plant response rating (rice; [2]) | Rice plant response rating (rice; [3]) | Rice plant response rating (rice; [4]) | Bedstraw plant response rating (bedstraw; [5]) | Bedstraw plant response rating (0 to 10 scale) (bedstraw; Preemergence, Rate 125 g/ha) | Bedstraw plant response rating (bedstraw; [6]) | Bedstraw plant response rating (bedstraw; [9]) | Bedstraw plant response rating (bedstraw; [11]) | Rape plant response rating (rape; [5]) | Rape plant response rating (0 to 10 scale) (rape; Preemergence, Rate 125 g/ha) | Rape plant response rating (rape; [6]) | Rape plant response rating (rape; [7]) | Rape plant response rating (rape; [8]) | Rape plant response rating (rape; [9]) | Plant response rating, Rape (rape; [10]) | Crabgrass plant response rating (crabgrass; [5]) | Crabgrass plant response rating (0 to 10 scale) (crabgrass; Preemergence, Rate 125 g/ha) | Crabgrass plant response rating (crabgrass; [6]) | Crabgrass plant response rating (crabgrass; [8]) | Crabgrass plant response rating (crabgrass; [9]) | Plant response rating, Crabgrass (crabgrass; [10]) | Blackgrass plant response rating (blackgrass; [5]) | Blackgrass plant response rating (0 to 10 scale) (blackgrass; Preemergence, Rate 125 g/ha) | Blackgrass plant response rating (blackgrass; [6]) | Blackgrass plant response rating (blackgrass; [7]) | Blackgrass plant response rating (blackgrass; [8]) | Blackgrass plant response rating (blackgrass; [9]) | Plant response rating, Blackgrass (blackgrass; [10]) | Blackgrass plant response rating (blackgrass; [11]) | Giant foxtail plant response rating (giant foxtail; [5]) | Giant foxtail plant response rating (0 to 10 scale) (giant foxtail; Preemergence, Rate 125 g/ha) | Giant foxtail plant response rating (giant foxtail; [6]) | Giant foxtail plant response rating (giant foxtail; [7]) | Giant foxtail plant response rating (giant foxtail; [8]) | Giant foxtail plant response rating (giant foxtail; [9]) | Plant response rating, Giant foxtail (giant foxtail; [10]) | Wild oats plant response rating (wild oat; [5]) | Wild oats plant response rating (0 to 10 scale) (wild oat; Preemergence, Rate 125 g/ha) | Wild oats plant response rating (wild oat; [6]) | Wild oats plant response rating (wild oat; [7]) | Wild oats plant response rating (wild oat; [8]) | Wild oats plant response rating (wild oat; [9]) | Plant response rating, Wild oats (wild oat; [10])

— patent US6737383B1, “Herbicidal oxadiazolidines” (priority 1999, dated 2004)
